The source of these data is PubChem BioAssay (NCI).

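96-well plates; 48 h exposure; 5 concentrations. Endpoints by linear interpolation between flanking doses. Not reached: highest tested concentration assigned. GI50 is the concentration that inhibits growth by half. Definition used: TGI = concentration required for complete inhibition of growth.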 Where a SMILES comes first, the peptide text is derived from it. The star is where a group is joined. Fmoc = O=C(OCC1c2ccccc2-c2ccccc21)*; Boc = CC(C)(C)OC(=O)* Some results are limits rather than exact numbers.

Assay in all cases: NCI-60 cell line screen, 48 h
Assay [1] concerns EKVX NSCLC.
For assay [2], the system named is HCT-116 colon.
Assay [3] deals with KM12 colon.
Assay [4] has as its system NCI-H226 lung.
Assay [5] deals with NCI-H460 lung.
Assay [6] relates to RPMI-8226 leukemia.
Assay [7] relates to SF-539 CNS.
For assay [8], the system named is SK-MEL-28 melanoma.
Assay [9] relates to SNB-19 CNS.
In assay [10] the test system is SNB-75 CNS.

With `CC(C)(C)OC(=O)NCCCCC(NC(=O)C(Cc1c[nH]c2ccccc12)NC(=O)OCC1c2ccccc2-c2ccccc21)C(=O)N1CCCC1C(=O)NCC(N)=O` (stereo not drawn) (Fmoc-WK(Boc)PG-NH2; configuration not given here), the TGI in assay [1], in assay [2], in [3], in assay [4], in [5] and in [6] was > 100 µM in each case. The TGI in assay [7], in [8], in assay [9] and in [10] was > 100 µM throughout.

For the compound `O=C1C=C(OCCCCl)C(=O)c2c(O)ccc(O)c21`, the TGI in assay [1] is 3.19 µM; in [2] it was 1.28 µM; in assay [3] it was 3.37 µM; in assay [4], 3.7 µM; in assay [5], 3.1 µM; in [6], 6.01 µM. For the same compound, the TGI in [7] was 2.76 µM; in assay [8], 2.08 µM; in assay [9], 3.55 µM; in assay [10], 2.69 µM.

In the case of `C=C(CN1CC2C[C@](C(=O)OC)(c3cc4ccccc4[nH]3)C1C(OC)C2OC)S(=O)(=O)c1ccccc1` (stereo partly drawn), the TGI in [1] worked out at 13 µM; in assay [2], 7.08 µM; in [3], 10.7 µM; in [4], 18.8 µM; in [5] it was 12 µM; in [6], 6.06 µM. Further, the TGI in assay [7] is 16.9 µM; in [8] it was 25.5 µM; in assay [9], 24.3 µM; in assay [10], 11.6 µM.

Turning to `Cc1cc(S(=O)(=O)/N=C(/[N-]S(=O)(=O)c2ccc(Cl)cc2)[n+]2ccc(N(C)C)cc2)c(SCC(=O)O)cc1Cl`, the TGI in assay [1], in assay [2], in assay [3], in [4], in assay [5] and in assay [6] was > 100 µM throughout. The TGI in [7], in [9] and in assay [10] was > 100 µM in each case.

As for `Cc1cccc(-c2cc(=O)c3c(C)cc(C)nc3[nH]2)c1`, the TGI was > 100 µM in assay [1]; > 39.1 µM in assay [2]; 21.9 µM in assay [3]; 31.4 µM in assay [4]; 16.6 µM in assay [5]; > 52.1 µM in assay [6]. In addition, the TGI in assay [7] was 12.1 µM; in assay [8], > 100 µM; in assay [9], > 100 µM; in assay [10], 7.36 µM.

Consider `CC(C)Cc1cc2c(cc1O)CCC1C2CC[C@@]2(C)C1CC[C@@H]2O` (stereo partly drawn), for which the TGI amounted to 26.3 µM in [1]; 16.2 µM in assay [2]; 17.4 µM in [3]; 14.2 µM in assay [4]; 25.5 µM in [5]; 20.4 µM in assay [6]. Moreover, the TGI in assay [7] was determined as 40.6 µM; in assay [8], 28.8 µM; in assay [9] it was 21.1 µM; in [10], 33.3 µM.

On to `C[N+](C)(C)CC(=O)N/N=C/c1ccncc1`, for which the TGI in [1], in assay [2], in assay [3], in assay [4], in assay [5] and in [6] was > 100 µM each time. For the same compound, the TGI in assay [7], in assay [8], in assay [9] and in assay [10] was > 100 µM each time.

In the case of `c1ccc2c(c1)NC1(N3CCCCC3)CCCCC21` (stereo not drawn), the TGI in assay [1], in assay [2], in assay [3], in [4], in assay [5] and in assay [6] was > 100 µM each time. Also, the TGI in assay [7], in assay [8], in assay [9] and in [10] was > 100 µM throughout.

As for `CN1CN(c2ccccc2)C2(CCN(CCC3COc4ccccc4O3)CC2)C1=O` (stereo not drawn), the TGI in [1] came to 51.4 µM; in assay [2], 23.2 µM; in assay [3], 66.7 µM; in [4], 85.1 µM; in assay [6], 42.7 µM; in assay [7], 38 µM. Further, the TGI was 47.3 µM in [8], 70.8 µM in assay [9] and > 100 µM in assay [10].

On to `COc1ccc(C2CC3(c4ccccc4)ON=C(c4ccccc4)N3c3ccccc3S2)cc1` (stereo not drawn), for which the TGI in assay [1], in assay [2], in [3], in assay [4], in [5] and in assay [6] was > 100 µM throughout. In addition, the TGI in assay [7], in [8] and in [10] was > 100 µM each time.

For `CN1CCN(Cc2ccc(NC(=O)c3cccc(C#Cc4cnc(N)c5ncccc45)c3F)cc2C(F)(F)F)CC1`, the GI50 is 6.57 µM in [1]; 0.332 µM in assay [3]; 0.647 µM in assay [4]; 0.561 µM in assay [5]; 2.28 µM in assay [6]; 0.733 µM in assay [7]. Moreover, the GI50 in assay [8] is 0.848 µM; in [9] it was 1.41 µM; in assay [10] it was 1.59 µM. The TGI in assay [1] worked out at 13.7 µM; in [3] it was 6.51 µM; in [4] it was 1.97 µM; in assay [5], 1.37 µM; in assay [6], 13.2 µM; in assay [7] it was 1.5 µM. The values for the TGI in assay [8], in assay [9] and in assay [10] were 1.59 µM, 3.72 µM and 7.48 µM, respectively.

In the case of `CC(=O)OC12c3ccccc3-c3ccccc3C1C1C(=O)OC(=O)C12` (stereo not drawn), the TGI in assay [1], in assay [3], in assay [4], in assay [5], in [6] and in [7] was > 10 µM in each case. The TGI in [8], in [9] and in assay [10] was > 10 µM each time.

With `CC(=O)OC1COC(N2C(=O)C(=O)c3cc(Br)ccc32)C(OC(C)=O)C1OC(C)=O` (stereo not drawn), the TGI in assay [1], in [3], in [4], in assay [5], in assay [6] and in assay [7] was > 100 µM throughout. Also, the TGI in assay [8], in [9] and in assay [10] was > 100 µM throughout.
